Test results taken from patent US12419890B2, “Administration of sumo-activating enzyme inhibitor and checkpoint inhibitors” (Takeda Pharmaceutical Company Limited, priority 2019, dated 2025).

Tested on: WEHI-3 syngeneic mouse myelomonocytic leukemia-derived subcutaneous tumor
Experiment: WEHI-3 Study 5: mouse WEHI-3 syngeneic tumor model, individual tumor volume
Assay type: in vivo
Settings: Compound I-263a 7.5 mg/kg IV BIW till Day 14
Procedure: WEHI-3 Study 5: WEHI-3 is a mouse myelomonocytic leukemia cell line. WEHI-3 mouse syngeneic tumor model was generated by subcutaneous inoculation with 0.1×10^6 WEHI-3 cells (cell suspension) in 9 weeks old female BALB/c mice (SINO-British SIPPR/BK Lab Animal Ltd. Shanghai, China) in the flank. When the mean tumor volume reached approximately 30 mm^3, the animals were randomized into one vehicle control and five treatment groups (n=8/group). Mice were then dosed with 20% HPbCD or Compound I-263a or anti-mouse PD-1 antibody or anti-mouse CTLA-4 antibody over a 21-day period. Tumor growth and body weight were measured twice per week during the treatment and post-treatment periods, and mice were humanely euthanized once they had reached their humane endpoint.
Study 5: A 0.75 mg/mL stock solution of Compound I-263a was formulated weekly in 20% HPβCD and administered intravenously (IV) based on exact animal body weight on each day of treatment, using a dosing volume of 10 mL/kg body weight. Final doses received were 7.5 mg/kg. Dosing volume for Compound I-263a was 0.2 mL. Anti-mouse PD1 antibody (anti-mPD-1) (Bio X Cell, 10 Technology Drive, Suite 2B, West Lebanon, NH 03784) was formulated prior to each injection at 2.0 mg/mL in Phosphate-buffered saline (PBS) and administered intraperitoneally (IP) based on exact body weight on each day of treatment, using a dosing volume of 5 mL/kg resulting in a 10 mg/kg dose. Dosing volume for anti-mPD-1 was 0.1 mL. Anti-mouse CTLA-4 antibody (anti-mCTLA-4) (Bio X Cell, 10 Technology Drive, Suite 2B, West Lebanon, NH 03784) was formulated prior to each injection at 2.0 mg/mL in Phosphate-buffered saline (PBS) and administered intraperitoneally (IP) based on exact body weight on each day of treatment, using a dosing volume of 5 mL/kg resulting in a 10 mg/kg dose. […]
Tumors were measured twice weekly using vernier calipers. Tumor volumes were calculated using standard equation: V=W^2×L/2, where V=volume, W=width, and L=length for the tumor. […] Tumor size and body weight were measured twice a week for the duration of the study. […]

For Cc1sc(C(=O)c2cncnc2N[C@@H]2C[C@H](COS(N)(=O)=O)[C@@H](O)C2)cc1[C@@H]1NCCc2ccc(Cl)cc21 [Compound I-263a, [(1R,2S,4R)-4-{[5-({4-[(1R)-7-chloro-1,2,3,4-tetrahydroisoquinolin-1-yl]-5-methyl-2-thienyl}carbonyl)pyrimidin-4-yl]amino}-2-hydroxycyclopentyl]methyl sulfamate], the “tumor growth inhibition / antitumor activity relative to vehicle” value (anti-mPD-1 10 mg/kg IP BIW till Day 10, anti-mCTLA-4 10 mg/kg IP Q4D till Day 8, 8 tumors/group) was “modest inhibition”, the tumor growth delays (delay to 11-14 days) was “one” and the “tumors with slight tumor growth delay” value (delays to 7-11 days, of the 8 implanted tumors) was 6.
